Results: PubChem BioAssay AID588529 (Broad Institute, 2011)

Test system: Candida albicans CaCi-2 growth, Alamar Blue fluorescence, 48 h
Assay: single-agent growth inhibition of Candida albicans, dose response, CaCi-2 isolate, Alamar Blue, cherry-pick (AID 588529)

Structure (SMILES) | AC50 [µM]
Oc1c(CN2CCN(c3ccccc3)CC2)cc(Br)c2cccnc12 | 2.38
COc1ccc(C)cc1N=Nc1ccc(O)c2ncccc12 | 1.71
O=[N+]([O-])c1cc(CN2CCN(c3ccccc3)CC2)c(O)c2ncccc12 | 5.39
O=Cc1ccc(O)c2ncccc12 | 3.85
CN1CCN(C(c2ccc(C(F)(F)F)cc2)c2ccc3cccnc3c2O)CC1 (centres undefined) | 5.05
CCCCC(=O)NC(c1ccc(N(CC)CC)cc1)c1ccc2cccnc2c1O (centres undefined) | 3.74
C/C(=N\NC(=O)c1cc2ccccc2cc1O)c1ccccn1 | 5
CCOC(=O)N1C(=O)C2(CCCCC2)N(c2ccc(C)cc2)C1=S | 0.102
COc1cccc(N=Nc2ccc3cccnc3c2O)c1 | 1.52
C=CCNC(=S)N/N=C(\C)c1ccccn1 | 13.8
C(C#CCCCCCCCCC[n+]1ccccc1)#CCCCCCCCCC[n+]1ccccc1 | 16.2
O=C(N/N=C/c1cc2c3c(c1O)CCCN3CCC2)c1ccccc1O | 1.75
O=C(N/N=C/c1c(O)ccc2ccccc12)c1cccc(C(F)(F)F)c1 | 1.45
CCN(CC)S(=O)(=O)c1cc(OC)ccc1N=Nc1ccc(O)c2ncccc12 | 10.6
CCCCC(=O)NC(c1ccc(Cl)cc1)c1ccc2cccnc2c1O (centres undefined) | 5.11
Oc1c(CN2CCN(c3ccc(F)cc3)CC2)cc(Cl)c2cccnc12 | 3.73
CCCCC(=O)NC(c1ccco1)c1cc(Cl)c2cccnc2c1O (centres undefined) | 6.22

Structure (SMILES) | AC50 [µM]
Oc1c(C(c2ccc(Cl)cc2)N2CCCC2)cc(Cl)c2cccnc12 (centres undefined) | 1.51
COc1cccc(/C=N/Nc2ncnc3scc(-c4ccccc4)c23)c1O | 5.52
O=c1ccc(N=Nc2ccccc2)ccc1O | 4.76
Cc1ccc(C(=O)c2coc3c2C(=O)C(=O)c2ccccc2-3)cc1 | 9.38
CN1CCN(C(c2ccc(C(F)(F)F)cc2)c2cc(Cl)c3cccnc3c2O)CC1 (centres undefined) | 2.71
Oc1ccc(N=Nc2ccc3c(c2)OCCO3)c2ncccc12 | 2.59
CCOc1ccc(N=Nc2ccc(O)c3ncccc23)cc1 | 1.4
O=C(Oc1c(Cl)cc(Cl)c2cccnc12)c1ccco1 | 0.812
Oc1c(C(Nc2nc3ccccc3s2)c2ccco2)ccc2cccnc12 (centres undefined) | 3.26
O=C(Oc1c(Cl)cc(Cl)c2cccnc12)c1cccs1 | 1.49
Oc1c(C(Nc2nccs2)c2ccc(C(F)(F)F)cc2)ccc2cccnc12 (centres undefined) | 3.73
COc1cccc(N=Nc2ccc(O)c3ncccc23)c1 | 0.39
CCCCCCC[n+]1ccc(-c2cc[n+](CCCCCCC)cc2)cc1 | 3.76
Oc1ccc(N=Nc2ccc3c(c2)OCCO3)c2cccnc12 | 3.55
Cc1cc(NC(c2ccc(Cl)cc2)c2ccc3cccnc3c2O)no1 (centres undefined) | 4.71
O=Nc1c(-c2cccc([N+](=O)[O-])c2)nc2ncccn12 | 5.11
O=[N+]([O-])c1ccc(O)c(/C=N/Nc2ccc(Cl)nn2)c1 | 5.11
